Experimental data reported in patent publication EP1006108A1, “3-Hydroxy-2(1H)-pyridinone or 3-hydroxy-4(1H)-pyridinone derivatives useful as reactive oxygen species (ROS) scavengers” (Cerebrus Pharmaceuticals Limited, priority 1998, dated 2000).
Structures can show the parent of a compound that is named as a salt.

Experiments:
[1] = test system: cerebellar granule cell (CGC) cultures; assay: Iodoacetate (IAA) induced cell death, MTT-reductase readout; format: cell-based; conditions: Cell Toxicity, 30-µM IAA for 30 min plus 10-µM MK-801, then test compound, 24 hour incubation
Method: After 6-8 days in culture, cerebellar granule cell (CGC) cultures in 96-well plates (250,000 cells per well) were prepared for hypoglycaemia. Iodoacetate (IAA) was made up in a balanced salt solution (BSS) (NaCI, 154.0-mM; KCl, 5.6-mM; MgCl2, 1.0-mM; CaCl2, 2.5-mM; N-[2-hydroxyethyl]piperazine-N'-[2-ethanesulfonic acid] (HEPES), 10.0-mM; D-glucose, 5.6-mM; pH 7.4) and any neuroprotective agents were made up in pre-warmed tissue culture media and allowed to equilibrate in a controlled environment (5 % CO2, 95 % air). The assay was initiated by aspiration of the maintenance media, which was replaced by either BSS (control) or 30-µM IAA in BSS, both solutions containing 10-µM of the NMDA receptor antagonist MK-801. The exposure to IAA was for 30 min only at 37 °C, after which time the BSS was aspirated and replaced with fresh, pre-equilibriated maintenance media containing various concentrations of test compound. All conditions were performed at least in duplicate in each 96 well plate. The final volume for each well was always 200 µL. Following a 24 hour incubation, visual inspection of the cells was followed by quantification of neuronal cell death by measuring 3-[4,5-dimethylthiazol-2-yl]-2,5-diphenyltetrazolium bromide (MTT)-reductase activity as described previously (Malcolm et al., J. Neurochem. 1996, 66, 2350-2360).

[2] = test system: lipid peroxidation in rat brain homogenates; assay: Lipid peroxidation assay (ascorbic acid induced, MDA/TBA readout); format: biochemical; conditions: concentration inhibiting lipid peroxidation by 50%; rat cortex preparation, 500-µM L-ascorbic acid, 37 °C for 30 min
Method: Lipid peroxidation in rat brain homogenates is a general procedure used to measure the antioxidant capacity of molecules in a biological environment (Das N.P. and Ratty A.K., Biochem. Med. Metab. Biol. 1987, 37, 256-264).
Rat cortex was homogenised in 20 vols. of ice cold 0.32-M sucrose and centrifuged at 1,000 g for 10 min. The pellet was discarded whilst the resulting supernatant was centrifuged at 15,000 g for 20 min at 4 °C to yield p2 pellets. The pellet was re-suspended in ice-cold 50.0-mM phosphate buffer and centrifuged at 30,000 g for 20 min at 4 °C. The pellet was re-suspended in 30 vols, of 50.0-mM phosphate buffer and used immediately in the assay.
Assays contained 500-µM L-ascorbic acid to induce lipid peroxidation, plus various concentrations of test compound, with the tissue preparation in a total volume of 500 µL. This was incubated at 37 °C for 30 min. Lipid peroxidation was measured by adding to the reaction mixture, 300 µL 40 % (w/v) trichloroacetic acid, 150 µL 5.0-M HCl and 300 µL 2 % (w/v) 2-thiobarbituric acid (TBA). Samples were then heated at 90 °C in a water bath for 15 min, and centrifuged at 15,000 g for 10 min. The pink colour of the supernatant was assessed spectrophotometrically at a wavelength of 532 nm. The amount of malondialdehyde (MDA) in the samples was calculated using a standard curve prepared with malondialdehyde tetrabutylammonium salt (Das, N.P. and Ratty, A.K. Biochem. Med. Metab. Biol. 1987, 37, 256-264).
The IC50 values show the concentration of test compound required to inhibit the lipid peroxidation by 50%.

[3] = test system: oxidation of DCFH to DCF; assay: Measurement of intracellular oxidative stress (DCFH-DA fluorescence); format: cell-based; conditions: 0.5 h, concentration blocking oxidation of DCFH to DCF by 50%, 30.0-µM IAA, 30 minutes, read from Figure 1
Method: IAA-stimulated fluorescence values are given as a function of concentration of the test compound.
Intracellular oxidative stress was measured using the oxidant-sensitive fluorescent dye 2',7'-dichlorodihydrofluorescein diacetate (DCFH-DA) (Molecular Probes). The non-fluorescent DCFH-DA readily crosses cell membranes whereupon it is trapped within the cytoplasm by deacetylation to the non-membrane permeable form dichlorodihydrofluorescein (DCFH). Upon oxidation, DCFH yields the highly fluorescent product dichlorofluorescein (DCF). Briefly, growth medium was aspirated from cultures and replaced with 200 µl BSS (plus 10.0-µM MK-801) or BSS (plus 10.0-µM MK-801) containing 30.0-µM IAA alone or in combination with various concentrations of antioxidants. After incubation at 37 °C for 30 minutes, cultures were aspirated once more and 10.0-µM DCFH-DA (200 µL) added to all wells. After a further 20 minute incubation at 37 °C, fluorescence was measured in a Cytofluor II fluorescent plate reader (λex=485nm; λem=530nm). Background fluorescence values from wells treated with 2 % Triton X-100 were subtracted from both basal and stimulated fluorescence values and the effects of test compounds expressed as a percent inhibition of the IAA-stimulated fluorescence increase over basal.
The EC50 value gives the effective concentration of test compound required to block the oxidation of DCFH to DCF by 50%. […]

Molecule | EC50 [1] | IC50 [2] | EC50 [3]
Cc1c(C)c2c(c(C)c1O)CCC(C)(CNC(=O)CCn1ccc(=O)c(O)c1C)O2 (stereo not drawn) [Example 5, 3-(1,4-Dihydro-3-hydroxy-2-methyl-4-oxo-1-pyridinyl)-N-(3,4-dihydro-6-hydroxy-2,5,7,8-tetramethyl-2H-benzopyran-2-yl)methylpropanamide] | 2.6 µM | 0.8 µM | 
Cc1c(C)c2c(c(C)c1O)CC(CCOC(=O)CCn1ccc(=O)c(O)c1C)O2 (stereo not drawn) [Example 10, 2-(2,3-Dihydro-5-hydroxy-4,6,7-trimethylbenzofuran-2-yl)ethyl 3-(1,4-dihydro-3-hydroxy-2-methyl-4-oxo-1-pyridinyl)propanoate] | ~5.3 µM | 0.2 µM | 0.8 µM
Cc1c(C)c2c(c(C)c1O)CCC(C)(COCCn1ccc(=O)c(O)c1C)O2 (stereo not drawn) [Example 6] | ~3 µM | 0.2 µM | 
Cc1c(C)c2c(c(C)c1O)CC(CC(=O)NCCn1ccc(=O)c(O)c1C)O2 (stereo not drawn) [Example 8, N-(2-(1,4-Dihydro-3-hydroxy-2-methyl-4-oxo-1-pyridinyl)ethyl)-2,3-dihydro-5-hydroxy-4,6,7-trimethylbenzofuran-2-acetamide] | 3.8 µM | 0.5 µM | 
N-(2-(1,4-Dihydro-3-hydroxy-2-methyl-4-oxo-1-pyridinyl)ethyl)-3,4-dihydro-6-hydroxy-2,5,7,8-tetramethyl-2H-benzopyran-2-carboxamide [Example 4] | 1.8 µM | 1 µM | 
Cc1c(O)c(=O)ccn1CCC(=O)NCCCc1cc(C(C)(C)C)c(O)c(C(C)(C)C)c1 [Example 1, 3-(1,4-Dihydro-3-hydroxy-2-methyl-4-oxo-1-pyridinyl)-N-(3-(3,5-di-tert-butyl-4-hydroxyphenyl)propyl)propanamide] | 0.3 µM | 0.2 µM | 
Cc1c(C)c2c(c(C)c1O)CCC(C)(CNCCCCn1ccc(=O)c(O)c1C)O2 (stereo not drawn) [Example 7, 1-[4-(3,4-Dihydro-6-hydroxy-2,5,7,8-tetramethyl-2H-benzopyran-2-yl)methylamino)butyl]-3-hydroxy-2-methyl-4(1H)-pyridinone dihydrochloride] | 0.6 µM | 0.1 µM | 
Cc1c(C)c2c(c(C)c1O)CC(CC(=O)OCCn1ccc(=O)c(O)c1C)O2 (stereo not drawn) [Example 9, 2-(1,4-Dihydro-3-hydroxy-2-methyl-4-oxo-1-pyridinyl)ethyl 2,3-dihydro-5-hydroxy-4,6,7-trimethylbenzofuran-2-acetate] | 1.6 µM | 0.4 µM | 
Cc1c(O)c(=O)ccn1CCNCc1cc(C(C)(C)C)c(O)c(C(C)(C)C)c1 [Example 2, 1-[2-(3,5-Di-tert-butyl-4-hydroxybenzylamino)ethyl]-3-hydroxy-2-methyl-4(1H)-pyridinone dihydrochloride] | 3.3 µM | 0.2 µM | 
2-(1,4-Dihydro-3-hydroxy-2-methyl-4-oxo-1-pyridinyl)ethyl 3,4-dihydro-6-hydroxy-2,5,7,8-tetramethyl-2H-benzopyran-2-carboxylate [Example 3] | 1.8 µM | 1.5 µM | 
